Results: the supplement of paper PMC10307832

What was measured:
Assay in all cases: relative viability (nuclei count vs DMSO), 5 days (fraction); higher = more cells survive
NCI-H647 = test system: NCI-H647
Method in brief: (§1)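 Lung cancer cell lines were pin-tool dosed in 1536-well plates on the day after seeding, with either a lone drug or a fixed anchor-drug dose plus five library-drug doses (not always all listed) in √10 steps. Nuclei were counted on 4× images after 5 days. Relative viability is the ratio of treated-well to vehicle-well nuclei counts, with each value a median of duplicate plates.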

H3255 = test system: H3255
Method in brief: as §1

COR-L23 = test system: COR-L23
Method in brief: as §1

LOU-NH91 = test system: LOU-NH91
Method in brief: as §1

HCC-15 = test system: HCC-15
Method in brief: as §1

NCI-H2347 = test system: NCI-H2347
Method in brief: as §1

UMC-11 = test system: UMC-11
Method in brief: as §1

NCI-H1563 = test system: NCI-H1563
Method in brief: as §1

PC-14 = test system: PC-14
Method in brief: as §1

NCI-H1734 = test system: NCI-H1734
Method in brief: as §1

NCI-H2405 = test system: NCI-H2405
Method in brief: as §1

NCI-H520 = test system: NCI-H520
Method in brief: as §1

NCI-H2023 = test system: NCI-H2023
Method in brief: as §1

NCI-H1650 = test system: NCI-H1650
Method in brief: as §1

NCI-H322M = test system: NCI-H322M
Method in brief: as §1

NCI-H441 = test system: NCI-H441
Method in brief: as §1

NCI-H3122 = test system: NCI-H3122
Method in brief: as §1

EPLC-272H = test system: EPLC-272H
Method in brief: as §1

201T = test system: 201T
Method in brief: as §1

SMILES: CCN(CC)CCCCNc1ncc2cc(-c3cc(OC)cc(OC)c3)c(NC(=O)NC(C)(C)C)nc2n1 + CC(C)C[C@H](NC(=O)[C@H](Cc1ccccc1)NC(=O)c1cnccn1)B(O)O [Bortezomib] (partner 0.002 µM)
- relative viability (NCI-H647; first compound 0.01 µM): 1.02
- relative viability (NCI-H647; first compound 0.03162 µM): 0.996
- relative viability (NCI-H647; first compound 0.1 µM): 1.6
- relative viability (NCI-H647; first compound 0.3162 µM): 1.08
- relative viability (NCI-H647; first compound 1 µM): 1.07
- relative viability (H3255; first compound 0.01 µM): 0.762
- relative viability (H3255; first compound 0.03162 µM): 0.773
- relative viability (H3255; first compound 0.1 µM): 1.02
- relative viability (H3255; first compound 0.3162 µM): 1.21
- relative viability (H3255; first compound 1 µM): 0.656
- relative viability (COR-L23; first compound 0.01 µM): 1.19
- relative viability (COR-L23; first compound 0.03162 µM): 1.3
- relative viability (COR-L23; first compound 0.1 µM): 1.13
- relative viability (COR-L23; first compound 0.3162 µM): 1.13
- relative viability (COR-L23; first compound 1 µM): 1.01
- relative viability (LOU-NH91; first compound 0.01 µM): 0.531
- relative viability (LOU-NH91; first compound 0.03162 µM): 0.49
- relative viability (LOU-NH91; first compound 0.1 µM): 0.498
- relative viability (LOU-NH91; first compound 0.3162 µM): 0.515
- relative viability (LOU-NH91; first compound 1 µM): 0.424
- relative viability (HCC-15; first compound 0.01 µM): 1.24
- relative viability (HCC-15; first compound 0.03162 µM): 1.06
- relative viability (HCC-15; first compound 0.1 µM): 1.06
- relative viability (HCC-15; first compound 0.3162 µM): 1.19
- relative viability (HCC-15; first compound 1 µM): 0.936
- relative viability (NCI-H2347; first compound 0.01 µM): 0.855
- relative viability (NCI-H2347; first compound 0.03162 µM): 0.864
- relative viability (NCI-H2347; first compound 0.1 µM): 1.2
- relative viability (NCI-H2347; first compound 0.3162 µM): 1.16
- relative viability (NCI-H2347; first compound 1 µM): 0.639
- relative viability (UMC-11; first compound 0.01 µM): 0.702
- relative viability (UMC-11; first compound 0.03162 µM): 0.722
- relative viability (UMC-11; first compound 0.1 µM): 0.73
- relative viability (UMC-11; first compound 0.3162 µM): 0.945
- relative viability (UMC-11; first compound 1 µM): 0.544
- relative viability (NCI-H1563; first compound 0.01 µM): 0.722
- relative viability (NCI-H1563; first compound 0.03162 µM): 0.847
- relative viability (NCI-H1563; first compound 0.1 µM): 0.818
- relative viability (NCI-H1563; first compound 0.3162 µM): 0.809
- relative viability (NCI-H1563; first compound 1 µM): 0.52
- relative viability (PC-14; first compound 0.01 µM): 0.894
- relative viability (PC-14; first compound 0.03162 µM): 0.855
- relative viability (PC-14; first compound 0.1 µM): 0.947
- relative viability (PC-14; first compound 0.3162 µM): 0.962
- relative viability (PC-14; first compound 1 µM): 0.843
- relative viability (NCI-H1734; first compound 0.01 µM): 0.941
- relative viability (NCI-H1734; first compound 0.03162 µM): 0.901
- relative viability (NCI-H1734; first compound 0.1 µM): 1.11
- relative viability (NCI-H1734; first compound 0.3162 µM): 1.11
- relative viability (NCI-H1734; first compound 1 µM): 0.874
- relative viability (NCI-H2405; first compound 0.01 µM): 0.973
- relative viability (NCI-H2405; first compound 0.03162 µM): 0.866
- relative viability (NCI-H2405; first compound 0.1 µM): 1.05
- relative viability (NCI-H2405; first compound 0.3162 µM): 1.04
- relative viability (NCI-H2405; first compound 1 µM): 0.982
- relative viability (NCI-H520; first compound 0.01 µM): 0.787
- relative viability (NCI-H520; first compound 0.03162 µM): 0.442
- relative viability (NCI-H520; first compound 0.1 µM): 0.938
- relative viability (NCI-H520; first compound 0.3162 µM): 0.461
- relative viability (NCI-H520; first compound 1 µM): 0.244
- relative viability (NCI-H2023; first compound 0.01 µM): 0.925
- relative viability (NCI-H2023; first compound 0.03162 µM): 1.08
- relative viability (NCI-H2023; first compound 0.1 µM): 1.16
- relative viability (NCI-H2023; first compound 0.3162 µM): 1.13
- relative viability (NCI-H2023; first compound 1 µM): 0.968
- relative viability (NCI-H1650; first compound 0.01 µM): 0.201
- relative viability (NCI-H1650; first compound 0.03162 µM): 0.217
- relative viability (NCI-H1650; first compound 0.1 µM): 0.233
- relative viability (NCI-H1650; first compound 0.3162 µM): 0.203
- relative viability (NCI-H1650; first compound 1 µM): 0.197
- relative viability (NCI-H322M; first compound 0.01 µM): 1.29
- relative viability (NCI-H322M; first compound 0.03162 µM): 1.36
- relative viability (NCI-H322M; first compound 0.1 µM): 1.35
- relative viability (NCI-H322M; first compound 0.3162 µM): 1.39
- relative viability (NCI-H322M; first compound 1 µM): 1.08
- relative viability (NCI-H441; first compound 0.01 µM): 0.475
- relative viability (NCI-H441; first compound 0.03162 µM): 0.45
- relative viability (NCI-H441; first compound 0.1 µM): 0.817
- relative viability (NCI-H441; first compound 0.3162 µM): 0.489
- relative viability (NCI-H441; first compound 1 µM): 0.492
- relative viability (NCI-H3122; first compound 0.01 µM): 1.02
- relative viability (NCI-H3122; first compound 0.03162 µM): 1.07
- relative viability (NCI-H3122; first compound 0.1 µM): 1.1
- relative viability (NCI-H3122; first compound 0.3162 µM): 1.06
- relative viability (NCI-H3122; first compound 1 µM): 1.01
- relative viability (EPLC-272H; first compound 0.01 µM): 1.02
- relative viability (EPLC-272H; first compound 0.1 µM): 0.921
- relative viability (EPLC-272H; first compound 0.3162 µM): 1.03
- relative viability (EPLC-272H; first compound 1 µM): 0.796
- relative viability (201T; first compound 0.01 µM): 1.03
- relative viability (201T; first compound 0.03162 µM): 1.14
- relative viability (201T; first compound 0.1 µM): 1.14
- relative viability (201T; first compound 0.3162 µM): 1.15
- relative viability (201T; first compound 1 µM): 0.976
